Reference: patent publication US20110003796A1, “METHOD FOR THE TREATMENT OF PSYCHIC DISORDERS” (Consejo Nacional de Investigaciones Cientificas y Tecnicas …, priority 2009, published 2011)
“Also recorded” adds a separate entry of the source. Counter-ions that a name gives are not always drawn.

Key:
rats [1] = assay: Open field test (locomotor activity); type: in vivo, rat (male Wistar)
Procedure: These studies were performed exactly the same way as the studies of FST had been carried. All rats that experimented the first day of FST (pre-test), received the different treatments during 16 days. On day 17 they were placed in the cage of open field (60×60×60 cm) with the floor divided in squares (15×15 cm). The tests were performed between 14:00 and 17:00 hours, illuminated with an electric bulb of 75 W and placed 75 cm above the floor of the cage, in a quiet room. The locomotion was measured by the number of squares they enter with the four legs (counts), over a period of 5 minutes. After withdrawing the animal, the open field was carefully cleaned with a damp wipe.

rats [2] = assay: Forced swimming test (FST); type: in vivo, rat (male Wistar); conditions: for climbing in FST / immobility in FST / swimming in FST: 16 days
Procedure: (§1) The experiments were carried out with male Wistar rats with a body weight of 200-386 g. Rats were kept in a cycle of 12 hours of light (8:00 a 20:00) and 12 hours of darkness with free access to water and food except during the tests. The rats were divided in four groups, housed in individual polyethylene cages of with three or four rats each (55×38×30 cm) and fed with standard diet for the controls (C) or diet supplemented with omega-3 fatty acids (ω3). The animals were used only once in each test. All tests were performed in agreement with the Guidelines for the Care and Use of Laboratory Animals provided by National Institutes of Health of United States of America.
The Fluoxetine Hydrochloride (FLX) and mirtazapine (MTZ) were administered intra-peritoneally (IP) in a volume equivalent to 1 cc/kg and were freshly prepared each morning. The FLX was dissolved in distilled water and MZT was solubilized in isotonic saline (0.9% NaCl) plus three or four drops of glacial acetic acid to dissolve this solution. […] All control rats were given injections of saline.
In all cases antidepressant drugs or the saline solution were given once a day for 16 days, the final injection was given 24 hours before the test session (FIGS. 6 and 18).
The omega-3 fatty acids were given as diet supplement in the food enriched with salmon oil for 16 days. Each 1000 mg of highly concentrated salmon oil contains about 30% of omega-3, from which 17% is EPA and 13% is DHA; therefore there were 40 mg of omega-3 fatty acids per gram of enriched food. Rats of the ω3 group received a dose of about 0.72 g/kg/day of omega-3 fatty acids.
The swimming sessions were carried out placing the rats in Plexiglas cylinders (46 cm of height and 20 cm of diameter) which had been previously filled with water (23-25° C.) to 30 cm from the bottom. All swimming sessions were performed between 12:00 and 18:00 hours.
Two sessions were performed: an initial pre-test for 15 minutes followed by a 5-minute test, after 16 days. The drugs were given between both sessions.
Rats were studied at 5-second intervals during the session of forced swimming session. At each interval of 5 seconds, the predominant behavior was assigned to one of the following categories: (1) immobility: flotation in water without fighting, only doing the necessary movements to keep the head out of the water; (2) swimming, making the movements of active swimming, plus the ones necessary to keep simply the head out of the water (i.e., moving around the cylinder); and (3) climbing, making active movements with fore hints out of the water, usually against walls. The scoring for each behavior was expressed as the total of records per session of 5 minutes.

rats [3] = conditions: cited from earlier work; for antidepressant effect in prior studies: FLX 1 mg/kg, MTZ 1 mg/kg; for effect on the FST in prior studies: FLX 10 mg/kg, MTZ 20 mg/kg, similar test conditions
[4] = Body weight gain during chronic treatment; type: in vivo, rat (male Wistar)
Procedure: Tests were performed to analyze the body weight gain during chronic treatments with antidepressants and/or omega-3 fatty acids.
as §1

[5] = fluoxetine 10 mg/kg ip and/or omega-3 0.72 g/kg
[6] = mirtazapine 20 mg/kg ip and/or omega-3 0.72 g/kg

Row | SMILES | spontaneous locomotor activity in open field (rats [1]; fluoxetine 1 mg/kg and/or omega-3 0.72 g/kg) | spontaneous locomotor activity in open field test (rats [1]; fluoxetine 10 mg/kg and/or omega-3 0.72 g/kg) | effect of treatment on behaviors in FST (rats [2]; fluoxetine 1 mg/kg ip alone, two-factor ANOVA) | climbing in FST (rats [2]; [5]) | immobility in FST (rats [2]; [5]) | swimming in FST (rats [2]; [5]) | effect of treatment on the FST (rats [2]; fluoxetine sub-optimal doses lower than 1 mg/kg (0.1 and 0.5 mg/kg) alone) | antidepressant effect in prior studies (rats [3]) | effect on the FST in prior studies (rats [3]) | body weight ([4]; fluoxetine 10 mg/kg and/or omega-3 0.72 g/kg, vs control group) | body weight gain ([4]; fluoxetine sub-optimal dose 1 mg/kg) | spontaneous locomotor activity in open field (rats [1]; mirtazapine 1 mg/kg and/or omega-3 0.72 g/kg/day) | spontaneous locomotor activity in open field test (rats [1]; mirtazapine 20 mg/kg and/or omega-3 0.72 g/kg) | climbing in FST (rats [2]; [6]) | immobility in FST (rats [2]; [6]) | swimming in FST (rats [2]; [6]) | time of immobility in FST (rats [2]; mirtazapine sub-optimal dose 1 mg/kg ip and/or omega-3 0.72 g/kg/day, vs control) | body weight gain ([4]; mirtazapine 20 mg/kg and/or omega-3 0.72 g/kg, chronic) | body weight gain ([4]; mirtazapine sub-optimal dose 1 mg/kg and/or omega-3 0.72 g/kg, 1 mg/kg) | body weight gain ([4]; mirtazapine sub-optimal dose 1 mg/kg and/or omega-3 0.72 g/kg, listed as Mirtazapine, 1 mg/kg)
1 | CNCCC(Oc1ccc(C(F)(F)F)cc1)c1ccccc1 (stereo not shown) [fluoxetine, Fluoxetine Hydrochloride] | None of these treatments with antidepressant effects in the FST affected the levels of activity | None of these treatments with antidepressant effects in the FST affected the activity levels | no effect of treatment with FLX | without modifying the behavioral levels of climbing | reduces immobility | increases swimming | did not have any effect on the FST | not showing an antidepressant effect | produce a more robust effect on the FST | Body weight was significantly lower | Body weight gain was reduced although in a lesser extend | – | – | – | – | – | – | – | – | –
2 | CN1CCN2c3ncccc3Cc3ccccc3C2C1 (stereo not shown) [mirtazapine] | – | – | – | – | – | – | – | not showing an antidepressant effect | produce a more robust effect on the FST | – | – | did not interfere with the locomotor activity | did not interfere with the responses of locomotor activity | increase | significantly reduced the immobility | corresponding increase in the swimming | did not significantly change the time of immobility | significantly reduced the body weight gain; also recorded: significant decrease in body weight | does not interfere with the weight gain | did not produce any effect
